Reference: US12533385B2, “Use of mulberry twig alkaloids in preparation of drug for treating polycystic ovarian syndrome” (priority 2022, dated 2026)

Test system: LZ+HFD-induced PCOS model
Experiment: Pharmacodynamic experiment of mulberry extract on LZ+HFD-induced PCOS model (Experimental Example 11, incl. expanded scale)
Type: in vivo, SD rats
Conditions: Met. 125 mg/kg/d, expanded scale 18 rats/group, monitored 10 days from day 10 of treatment; model group 97%, blank about 59%
Method: Test methods for the hormones are as follows: • E2: estradiol radioimmunoassay KIT—HTA Co., Ltd. (SFDA approval No.: 520033010); • LH: Iodine[^125I] Human Luteinizing Hormone Radioimmunoassay Kit (SFDA approval No.: 510950161); • PRL: Iodine[^125I] Prolactin Radioimmunoassay Kit (SFDA approval No.: S10950161); • T: Iodine[^125I] Testosterone Radioimmunoassay Kit (SFDA approval No.: S10940093); • ADP, GnRH, SHBG, and AMH in serum of each animal were tested using Elisa kits; • P: Progesterone Radioimmunoassay Kit—Union Medical & Pharmaceutical Technology (Tianjin) Co., Ltd. (SFDA approval No.: S10950202).
The drugs were formulated as same as in Experimental Example 10.
Eighteen 3-week-old female SD rats with good health and shiny fur were selected and adaptively fed for 3 days, and then randomized into a blank group, a model group, and a dosing group. After fed with high-fat diets for 3 weeks, the rats in the model group and the dosing group were administered with LZ (1 mg/kg/d) via gavage for 6 weeks, while being fed with HFD (high-fat diets (research diets D12492)), and the PCOS rat models were constructed. After the models were evaluated as success, the rats in the dosing group were administered according to the dosage and mode listed in the table, during which an equal amount of normal saline was given to the blank group and the model group. […]

CN(C)C(=N)N=C(N)N [Met., Metformin]
share of diestrus/metestrus in the estrous cycle: 74%
